9 compounds from ChEMBL document CHEMBL3425399, “Progress in discovery of small-molecule modulators of protein-protein interactions via fragment screening” (Bioorg Med Chem Lett, 2015) can be followed below.

The target in test [1] is T1, DNA repair protein RAD51 homolog 1 (Homo sapiens, UniProt Q06609).
T1 sequence (Q06609 whole entry): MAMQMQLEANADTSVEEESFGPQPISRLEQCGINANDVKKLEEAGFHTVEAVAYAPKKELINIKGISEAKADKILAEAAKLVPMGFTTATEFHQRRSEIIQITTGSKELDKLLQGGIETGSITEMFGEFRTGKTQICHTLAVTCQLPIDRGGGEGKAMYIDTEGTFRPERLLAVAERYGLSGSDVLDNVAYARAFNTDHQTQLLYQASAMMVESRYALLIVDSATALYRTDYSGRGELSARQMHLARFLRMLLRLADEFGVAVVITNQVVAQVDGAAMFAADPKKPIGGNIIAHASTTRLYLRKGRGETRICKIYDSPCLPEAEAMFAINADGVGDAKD
Nature of the test: Binding affinity to RAD51 (unknown origin) by isothermal calorimetry.

The target of test [2] is GTPase KRas (Homo sapiens, UniProt P01116). Kind of test: Binding affinity to KRas (unknown origin).
Test [3] relates to Hepacivirus hominis. Kind of test: Inhibition of HCV NS3 protease at 500 uM by FRET assay.
The subject of test [4] is Hepacivirus hominis. Kind of test: Inhibition of HCV NS3 protease at 0.01 uM by FRET assay.
In test [5] the test system is Hepatitis C virus. Kind of test: Antiviral activity against HCV by cell based viral replicon assay. The class given is functional, organism-based, Hepacivirus hominis.

Structures are written as SMILES.

Chain of GTPase KRas (P01116 whole entry): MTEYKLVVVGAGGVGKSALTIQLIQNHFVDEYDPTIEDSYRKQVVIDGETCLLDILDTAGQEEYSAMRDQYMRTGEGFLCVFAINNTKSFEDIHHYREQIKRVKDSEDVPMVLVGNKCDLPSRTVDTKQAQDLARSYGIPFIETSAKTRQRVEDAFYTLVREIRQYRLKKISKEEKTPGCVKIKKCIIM

Turning to `O=C(N[C@@H](Cc1c[nH]c2ccccc12)C(=O)OCCc1ccccc1)c1ccccc1`, in test [1], the dissociation constant (Kd) was found to be 3 µM. Take `Cc1[nH]c2ccccc2c1Cc1nc2ccccc2[nH]1`: binding in test [2] was put at a Kd of 2000 µM. With `O=S(=O)(NCCc1c[nH]c2ccccc12)c1cc(Br)c(Cl)s1`, the equilibrium dissociation constant (Kd) in test [1] was determined as 1.3 µM. Still for that read-out and setting: the result for `N[C@@H](Cc1c[nH]c2ccccc12)C(=O)OCCc1ccccc1` reads 35 µM; that for `Oc1ccc2[nH]ccc2c1`, 2100 µM.

`COC(=O)[C@@H](N)Cc1c[nH]c2ccccc12` [TRYPTOPHAN METHYL ESTER] came in with an equilibrium dissociation constant (Kd) in test [1] of 570 µM.

In turn, `NCc1ccc(Oc2ccccc2)cc1` registered an inhibition in test [3] of 55%. Consider `CC[C@H](C)[C@H](N)C(=O)Nc1ccc2nc(Cc3c[nH]c4ccccc34)[nH]c2c1`, for which, in test [2], binding was put at a Kd of 190 µM.

Consider `CC[C@@H](N[C@@H](C)CC(=O)NCCN)c1ccc(Cl)c(Oc2ccccc2)c1F`, for which, in test [4], the inhibition worked out at 68%. In test [5], this compound returned a 50% effective concentration (EC50) of 0.008 µM.
